Reference: patent US10821091B2, “Retinoid compositions and methods of increasing immune cell-mediated killing of IDH mutant cancer cells” (UNIVERSITY OF PITTSBURGH—OF THE COMMONWEALTH SYSTEM OF …, priority 2017, dated 2020)
Entries after “also recorded” stand apart in the source; their conditions may differ.

Columns and labels:
[1] = test system: diffuse IDH mutant glioma; experiment: ATRA therapy in a human patient, MRI before and after; format: in vivo; settings: 40 mg/m2 ATRA, 21 days on, 7 days off, three months
Method: A patient with diffuse IDH mutant glioma was treated with 40 mg/m2 ATRA on a treatment cycle of 21 days on, 7 days off. MRI images of the patient's brain were performed before (FIG. 12A) and after (FIG. 12B) ATRA treatment.

[2] = test system: RBP1 in IDH mutant (HT-1080) cells; experiment: RBP1 levels by qPCR in chondrosarcoma cells; format: cell-based; settings: 1 μM or 10 μM ATRA, 48 hours
From the text: IDH mutant tumor cells produce reduced amounts of RBP1 compared to WT IDH tumor cells (FIG. 11D).

IDH mutant tumors [3] = experiment: NK depletion (anti-NK1.1) experiment in tumor-bearing C57BL6/J nude mice; format: in vivo
Method: (§1) Mice. […] DMSO-treated mice were used as controls.
Anti-tumor effects of ATRA in vivo is dependent upon NK activity in vivo. Contrary to the delayed pro-differentiation effect of ATRA in vitro (FIG. 13A through 13D), the anti-tumor effects in vivo were more immediate. Thus, it was hypothesized that ATRA exercises alternate pathways to curb tumor growth. […] To further substantiate the role of NKs in anti-tumor effect of ATRA, a NK blocking experiment was performed in vivo. Briefly, IDH mutant or WT tumor-bearing C57BL6/J nude mice were injected with […] anti-NK1.1 (or control isotype) antibody intra-peritoneally on the first day of ATRA treatment. ATRA treatment was started when tumors were about 25 mm^2 in size and administered every other day.

IDH mutant cells = experiment: NK cytotoxicity assay (CFSE/7-AAD flow cytometry) on ATRA-treated glioma cells; format: cell-based, human
Method: All-trans Retinoic acid (ATRA) treatment of astrocytes and primary glioma cells. ATRA was purchased from Sigma Aldrich® and reconstituted in DMSO. ATRA was added at a 1 μM final concentration to cell culture medium for 48 hours. After treatment, the cells either lysed in Trizol™ for qPCR analysis, or were used in NK cytotoxicity assays.
NK-92 cell culture. For some experiments, NK92 cells were used instead of donor NK cells. NK92 cells (ATCC® CRL-2407™) were obtained from ATCC. […] Fresh medium was added every 2-3 days and once a week, the cells were counted and re-suspended at a final concentration of 5×10^5 cells/mL in fresh medium.
NK cytotoxicity assay. […] After 6 h incubation, the cells were stained with 0.25 μg/ml of 7-AAD and analyzed by flow cytometry.
ATRA induced increased cytotoxic killing of IDH mutant cells in an NKG2D-ligand dependent manner. The ability of ATRA to sensitize IDH mutant cells to killing by NK cells was evaluated. For this purpose, IDH mutant and WT cells were treated with 1 μM ATRA for 48 hours and assessed for killing by NK-92 cells (ATCC) at a 10:1 E:T ratio. […] ATRA-treated cells were also evaluated for expression of NKG2D ligands.

IDH mutant tumors [4] = experiment: Comparison of RA isoforms in tumor-bearing mice; format: in vivo
From the text: as §1
Therefore, the efficacy of two other RA isoforms were compared with ATRA in IDH mutant gliomas. […] However, treatment of IDH mutant tumors with all three retinoic acid isoforms reduced tumor size (the bottom 3 data lines at Day 40 having endpoints below 100 mm^2). […] The changes in tumor microenvironment induced by ATRA differed from the other RA isoforms as well.

[5] = test system: IDH MUT (IDH1 R132H) tumors; experiment: CCL2 neutralization in ATRA-treated tumor-bearing mice; format: in vivo; settings: 10 mg/kg ATRA every alternate day, 1 μg anti-CCL2 neutralizing antibody
Method: IDH WT and MUT (IDH1 R132H) tumor-bearing mice were treated with 10 mg/kg ATRA every alternate day starting on day 18 after tumor inoculation. Mice were also injected with 1 μg anti-CCL2 neutralizing antibody (or anti isotype antibody) on the 1st day of ATRA treatment.

With `CC1=C(/C=C/C(C)=C/C=C/C(C)=C/C(=O)O)C(C)(C)CCC1` [ATRA, all-trans retinoic acid] the “glioma tumor on MRI” value [1] was “reduction in the size and severity of the glioma tumor”, the RBP1 levels [2] was “increased RBP1 levels in IDH mutant chondrosarcoma cells in a dose dependent manner” and the “levels of NKs in TILs by flow cytometry” value (IDH mutant tumors [3]; ATRA-treated mice vs DMSO-treated controls) was “higher levels of NKs”. The tumor growth (IDH mutant tumors [3]; IDH mutant tumor-bearing C57BL6/J nude mice, ATRA every other day, vs DMSO-treated controls) was “significantly slower tumor growth”, the “tumor growth after depletion of NKs (anti-NK1.1)” value (IDH mutant tumors [3]; IDH mutant tumor-bearing mice treated with ATRA) was “depletion of NKs abrogated the anti-tumor effects of ATRA” and the “killing by NK cells incubated with NKG2D blocking antibody” value (IDH mutant cells; ATRA-treated IDH mutant cells) was “failed to recognize and kill ATRA-treated IDH mutant cells, reducing killing to baseline levels”. The “killing by NK-92 cells” value (IDH mutant cells; IDH mutant cells, 1 μM ATRA 48 hours, 10:1 E:T ratio, vs DMSO-treated controls) was “significantly more susceptible to killing by NK-92 cells”, the “efficacy at retarding IDH mutant tumor growth compared among RA isoforms” value (IDH mutant tumors [4]; ATRA vs 13-cis RA and bexarotene) was “significantly more effective at retarding IDH mutant tumor growth in vivo; also recorded: the most effective RA isoform in terms of tumor growth” and the “tumor microenvironment immune cells” value (IDH mutant tumors [4]; after ATRA treatment, compared with 13-cis RA and bexarotene) was “lower MDSCs and monocytes, and higher DCs and macrophages”. The “gene expression levels of ULBP3 ex vivo” value (IDH mutant tumors [4]; compared with 13-cis RA and bexarotene) was “higher gene expression levels of ULBP3”, the “killing of IDH mutant cells by NK cells” value (IDH mutant tumors [4]; ex vivo co-culture with human NKs, compared among RA isoforms) was “significantly increased killing of IDH mutant cells by NK cells; also recorded: highest level of NK-mediated killing” and the “tumor stasis with CCL2 blockade” value [5] was “CCL2 blockade reversed ATRA-mediated tumor stasis”.
